Our source for the IC50 values is patent US9598421B2, “Imidazopyridazine compounds” (Pfizer Inc., priority 2014, dated 2017).

Format in all cases: biochemical
One assay has as its target Human PDE4C (Homo sapiens (Human), UniProt Q08493). Briefly: PDE4C Scintillation Proximity Assay (SPA), inhibition of enzyme activity. The note with it: human recombinant enzyme, 1 μM cAMP substrate, 30 min at 25° C., geometric mean of 2-9 determinations unless otherwise indicated, read-out: Human PDE4C FL. In general terms: SPA uses beads or plates that emit light when radiolabelled molecules are held near them.

Another assay concerns the target Human PDE4A (Homo sapiens (Human), UniProt P27815). As to the kind of experiment: PDE4A Scintillation Proximity Assay (SPA), inhibition of enzyme activity. The note with it: human recombinant enzyme, 1 μM cAMP substrate, 30 min at 25° C., geometric mean of 2-9 determinations unless otherwise indicated, read-out: Human PDE4A FL.
A further assay addresses Human PDE4D (Homo sapiens (Human), UniProt Q08499). Briefly: PDE4D Scintillation Proximity Assay (SPA), inhibition of enzyme activity. The note with it: human recombinant enzyme, 1 μM cAMP substrate, 30 min at 25° C., geometric mean of 2-9 determinations unless otherwise indicated, read-out: Human PDE4D FL.

pIC50: −log10 of the molar value.

Human PDE4C, sequence (Q08493 2-712): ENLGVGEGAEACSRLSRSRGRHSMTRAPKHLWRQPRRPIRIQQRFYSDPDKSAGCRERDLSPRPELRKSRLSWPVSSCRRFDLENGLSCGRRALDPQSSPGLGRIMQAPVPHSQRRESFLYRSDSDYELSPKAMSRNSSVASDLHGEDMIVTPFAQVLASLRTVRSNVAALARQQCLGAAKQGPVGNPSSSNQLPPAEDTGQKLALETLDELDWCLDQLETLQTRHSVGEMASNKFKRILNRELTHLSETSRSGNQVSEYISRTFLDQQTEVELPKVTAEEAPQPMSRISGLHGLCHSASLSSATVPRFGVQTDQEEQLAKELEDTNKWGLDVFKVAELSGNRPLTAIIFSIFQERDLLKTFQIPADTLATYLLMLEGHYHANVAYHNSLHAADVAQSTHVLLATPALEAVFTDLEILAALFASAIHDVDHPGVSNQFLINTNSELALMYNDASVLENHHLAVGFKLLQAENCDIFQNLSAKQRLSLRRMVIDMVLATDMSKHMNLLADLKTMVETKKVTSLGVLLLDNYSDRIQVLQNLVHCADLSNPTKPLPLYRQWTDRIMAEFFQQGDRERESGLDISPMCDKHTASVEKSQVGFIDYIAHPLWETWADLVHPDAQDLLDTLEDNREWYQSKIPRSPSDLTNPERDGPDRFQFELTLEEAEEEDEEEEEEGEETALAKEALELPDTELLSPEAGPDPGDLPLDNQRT
Human PDE4A, sequence (P27815 other isoform, or with tags, fused parts or gaps): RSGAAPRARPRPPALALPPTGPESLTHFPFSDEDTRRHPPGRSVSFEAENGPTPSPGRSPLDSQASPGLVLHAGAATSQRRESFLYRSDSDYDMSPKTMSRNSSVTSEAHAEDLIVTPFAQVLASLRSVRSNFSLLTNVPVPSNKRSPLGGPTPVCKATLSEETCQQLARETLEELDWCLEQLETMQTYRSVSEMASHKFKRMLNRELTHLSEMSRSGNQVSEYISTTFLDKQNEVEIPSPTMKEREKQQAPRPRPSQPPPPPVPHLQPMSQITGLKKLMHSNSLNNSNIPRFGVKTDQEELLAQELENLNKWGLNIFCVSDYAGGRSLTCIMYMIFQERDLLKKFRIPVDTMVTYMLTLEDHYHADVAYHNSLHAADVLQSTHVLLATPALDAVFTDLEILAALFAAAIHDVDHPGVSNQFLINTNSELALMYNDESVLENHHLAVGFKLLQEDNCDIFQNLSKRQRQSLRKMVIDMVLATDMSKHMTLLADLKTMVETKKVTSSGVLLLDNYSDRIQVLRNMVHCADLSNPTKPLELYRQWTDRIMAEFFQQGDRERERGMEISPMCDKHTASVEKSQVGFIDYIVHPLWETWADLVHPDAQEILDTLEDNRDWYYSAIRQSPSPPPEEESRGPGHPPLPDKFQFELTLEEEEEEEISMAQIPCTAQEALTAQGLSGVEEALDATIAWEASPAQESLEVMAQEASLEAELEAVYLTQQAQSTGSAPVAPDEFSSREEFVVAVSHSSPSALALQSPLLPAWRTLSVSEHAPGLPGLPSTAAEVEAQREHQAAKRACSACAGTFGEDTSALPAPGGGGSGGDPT
Human PDE4D, sequence (Q08499 186-808): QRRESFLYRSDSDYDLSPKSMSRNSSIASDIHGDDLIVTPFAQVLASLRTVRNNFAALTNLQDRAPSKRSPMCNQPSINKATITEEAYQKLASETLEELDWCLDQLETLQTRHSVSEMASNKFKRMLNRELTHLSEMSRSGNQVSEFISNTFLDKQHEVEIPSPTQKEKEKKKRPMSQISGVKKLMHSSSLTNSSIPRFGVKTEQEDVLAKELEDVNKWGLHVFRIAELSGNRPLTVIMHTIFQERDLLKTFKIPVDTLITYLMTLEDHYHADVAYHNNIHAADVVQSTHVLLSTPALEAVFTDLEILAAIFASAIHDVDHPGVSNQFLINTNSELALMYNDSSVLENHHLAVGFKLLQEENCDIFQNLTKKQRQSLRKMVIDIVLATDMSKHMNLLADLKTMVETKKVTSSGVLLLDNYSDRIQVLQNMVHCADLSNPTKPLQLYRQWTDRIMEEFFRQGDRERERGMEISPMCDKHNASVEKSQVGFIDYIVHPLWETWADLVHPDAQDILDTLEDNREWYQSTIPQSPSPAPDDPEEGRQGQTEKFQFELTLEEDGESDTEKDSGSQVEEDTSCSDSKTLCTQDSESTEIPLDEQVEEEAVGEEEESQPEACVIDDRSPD
Experimental for Human PDE4A: (§1) The PDE4A3, PDE4B1, PDE4C1 and PDE4D3 assays use the Scintillation Proximity Assay (SPA) technology to measure the inhibition of human recombinant PDE4A1, PDE4B3, PDE4C1, and PDE4D3 enzyme activity by compounds in vitro. The PDE4A1, PDE4B3, PDE4C1, and PDE4D3 assays are run in parallel using identical parameters, except for the concentration of enzyme (80 pM PDE4A3, 40 pM PDE4B3, 40 pM PDE4C1 and 10 pM PDE4D). […] Reactions are incubated for 30 min at 25° C. The addition of 20 uL of 8 mg/ml yitrium silicate SPA beads (Perkin Elmer) stops the reaction. The plates are sealed (TopSeal, Perkin Elmer) and the beads are allowed to settle for 8 hrs, after which they are read on the Trilux Microbeta overnight.
Experimental for Human PDE4C: as §1

Take `O=C(c1nc2cccnn2c1-c1ccc(Cl)cc1F)N1CCC1` [Example 52, azetidin-1-yl[3-(4-chloro-2-fluorophenyl)imidazo[1,2-b]pyridazin-2-yl]methanone]: the pIC50 at Human PDE4C was 6.95; at Human PDE4A, 7.61; on Human PDE4D, 5.26.

In the case of `Cc1cc(-c2c(C(=O)N3CCC3)nc3cccnn23)cc(C)c1F` [Example 53, azetidin-1-yl[3-(4-fluoro-3,5-dimethylphenyl)imidazo[1,2-b]pyridazin-2-yl]methanone], the pIC50 is 6.82 at Human PDE4C, 7.75 on Human PDE4A and 5.51 at Human PDE4D.

Regarding `Cc1ccc(-c2c(C(=O)N3CCC3)nc3cccnn23)c(F)c1` [Example 54, azetidin-1-yl[3-(2-fluoro-4-methylphenyl)imidazo[1,2-b]pyridazin-2-yl]methanone], the pIC50 was 6.87 at Human PDE4C, 6.99 at Human PDE4A and under 4.70 at Human PDE4D.

Consider `COc1ccc(-c2c(C(=O)N3CCC3)nc3cccnn23)cc1F` [Example 55, azetidin-1-yl[3-(3-fluoro-4-methoxyphenyl)imidazo[1,2-b]pyridazin-2-yl]methanone], for which the results for the pIC50 on Human PDE4C, at Human PDE4A and at Human PDE4D were under 5.81, 6.75 and under 4.68, respectively.

Regarding `O=C(c1nc2cccnn2c1-c1ccc(Cl)cc1)N1CC(F)C1` [Example 60, [3-(4-chlorophenyl)imidazo[1,2-b]pyridazin-2-yl](3-fluoroazetidin-1-yl)methanone], the pIC50 at Human PDE4C was 6.54; at Human PDE4A, 6.57; on Human PDE4D, under 5.31.

Regarding `O=C(c1nc2cccnn2c1-c1ccc(Cl)cc1)N1CC(F)(F)C1` [Example 61, [3-(4-chlorophenyl)imidazo[1,2-b]pyridazin-2-yl](3,3-difluoroazetidin-1-yl)methanone], the pIC50 is 6.90 at Human PDE4C, 6.84 at Human PDE4A and 5.71 on Human PDE4D.

For the molecule `O=C(N[C@@H]1C[C@@H]1F)c1nc2cccnn2c1-c1ccc(Cl)cc1F` [Example 68, 3-(4-chloro-2-fluorophenyl)-N-[(1R,2S)-2-fluorocyclopropyl]imidazo[1,2-b]pyridazine-2-carboxamide], the pIC50 on Human PDE4C was 7.60; on Human PDE4A, 7.97; at Human PDE4D, 5.58.

On to `Cc1cc(Cl)ccc1-c1c(C(=O)N[C@@H]2C[C@@H]2F)nc2cccnn12` [Example 70, 3-(4-chloro-2-methylphenyl)-N-[(1R,2S)-2-fluorocyclopropyl]imidazo[1,2-b]pyridazine-2-carboxamide], for which the pIC50 was 7.05 on Human PDE4C, 7.44 at Human PDE4A and 5.24 at Human PDE4D.

`Cc1ccc(-c2c(C(=O)N[C@@H]3C[C@@H]3F)nc3cccnn23)cc1Cl` [Example 71, 3-(3-chloro-4-methylphenyl)-N-[(1R,2S)-2-fluorocyclopropyl]imidazo[1,2-b]pyridazine-2-carboxamide]: the figures for the pIC50 on Human PDE4C, at Human PDE4A and at Human PDE4D were 8.70, over 9.17 and 6.95, respectively.

Regarding `O=C(NC1CC1)c1nc2cccnn2c1-c1ccnc(OC(F)F)c1` [Example 75, N-cyclopropyl-3-[2-(difluoromethoxy)pyridin-4-yl]imidazo[1,2-b]pyridazine-2-carboxamide], the results for the pIC50 at Human PDE4C, at Human PDE4A and on Human PDE4D were 7.60, 7.98 and 6.98, respectively.

As to `O=C(c1nc2cccnn2c1-c1ccnc(OC(F)F)c1)N1CCC1` [Example 76, azetidin-1-yl{3-[2-(difluoromethoxy)pyridin-4-yl]imidazo[1,2-b]pyridazin-2-yl}methanone], the values for the pIC50 on Human PDE4C, on Human PDE4A and at Human PDE4D were 7.65, 8.15 and 7.02, respectively.

Regarding `O=C(c1nc2cccnn2c1-c1ccc2ncoc2c1)N1CCC1` [Example 77, azetidin-1-yl[3-(1,3-benzoxazol-6-yl)imidazo[1,2-b]pyridazin-2-yl]methanone], the figures for the pIC50 on Human PDE4C, on Human PDE4A and on Human PDE4D were 6.73, 7.34 and under 4.78, respectively.

Turning to `N#Cc1ccc(-c2c(C(=O)NC3CC3)nc3cccnn23)c(F)c1` [Example 79, 3-(4-cyano-2-fluorophenyl)-N-cyclopropylimidazo[1,2-b]pyridazine-2-carboxamide], the pIC50 on Human PDE4C is 6.53; on Human PDE4A it was 7.31; at Human PDE4D it was under 4.60.

As for `O=C(c1nc2cccnn2c1-c1ccc(Cl)c(Cl)c1)N1CCC1` [Example 83, azetidin-1-yl[3-(3,4-dichlorophenyl)imidazo[1,2-b]pyridazin-2-yl]methanone], the pIC50 is 7.40 at Human PDE4C, 8.21 on Human PDE4A and 6.31 on Human PDE4D.

`CCNC(=O)c1nc2cccnn2c1-c1ccc(Cl)cc1` [Example 85, 3-(4-chlorophenyl)-N-ethylimidazo[1,2-b]pyridazine-2-carboxamide]: the pIC50 was 7.33 at Human PDE4C, 7.59 on Human PDE4A and 5.17 on Human PDE4D.

In the case of `O=C(NC1CC1)c1nc2cccnn2c1-c1ccc(OC(F)F)nc1` [Example 87, N-cyclopropyl-3-[6-(difluoromethoxy)pyridin-3-yl]imidazo[1,2-b]pyridazine-2-carboxamide], the values for the pIC50 on Human PDE4C, on Human PDE4A and at Human PDE4D were 6.40, 6.62 and 5.17, respectively.

For `O=C(NC1CC1)c1nc2cccnn2c1-c1ccc2ncoc2c1` [Example 88, 3-(1,3-benzoxazol-6-yl)-N-cyclopropylimidazo[1,2-b]pyridazine-2-carboxamide], the figures for the pIC50 on Human PDE4C, at Human PDE4A and at Human PDE4D were 6.87, 7.35 and 4.98, respectively.

Take `Cc1cc2ncnn2cc1-c1c(C(=O)NC2CC2)nc2cccnn12` [Example 89, N-cyclopropyl-3-(7-methyl[1,2,4]triazolo[1,5-a]pyridin-6-yl)imidazo[1,2-b]pyridazine-2-carboxamide]: the pIC50 on Human PDE4C is 5.42; at Human PDE4A, 6.08; on Human PDE4D it was under 4.76.

Consider `N#Cc1ccc(-c2c(C(=O)NC3CC3)nc3cccnn23)cc1F` [Example 90, 3-(4-cyano-3-fluorophenyl)-N-cyclopropylimidazo[1,2-b]pyridazine-2-carboxamide], for which the pIC50 was 7.59 on Human PDE4C, 7.67 on Human PDE4A and 5.58 on Human PDE4D.

Take `N#Cc1cc(F)c(-c2c(C(=O)NC3CC3)nc3cccnn23)cc1F` [Example 92, 3-(4-cyano-2,5-difluorophenyl)-N-cyclopropylimidazo[1,2-b]pyridazine-2-carboxamide]: the results for the pIC50 at Human PDE4C, on Human PDE4A and on Human PDE4D were 7.37, 8.26 and under 5.84, respectively.

Turning to `CNC(=O)c1nc2cccnn2c1-c1cc(F)c(Cl)cc1F` [Example 93, 3-(4-chloro-2,5-difluorophenyl)-N-methylimidazo[1,2-b]pyridazine-2-carboxamide], the values for the pIC50 at Human PDE4C, at Human PDE4A and at Human PDE4D were 6.87, 7.20 and 5.39, respectively.

Consider `CNC(=O)c1nc2cccnn2c1-c1ccc(Cl)c(F)c1` [Example 94, 3-(4-chloro-3-fluorophenyl)-N-methylimidazo[1,2-b]pyridazine-2-carboxamide], for which the pIC50 on Human PDE4C was 7.19; on Human PDE4A, 7.60; at Human PDE4D it was 5.27.

For `CCNC(=O)c1nc2cccnn2c1-c1cc(F)c(Cl)cc1F` [Example 96, 3-(4-chloro-2,5-difluorophenyl)-N-ethylimidazo[1,2-b]pyridazine-2-carboxamide], the pIC50 was 7.53 at Human PDE4C, 8.34 on Human PDE4A and 6.04 at Human PDE4D.

On to `CCNC(=O)c1nc2cccnn2c1-c1cc(F)c(C#N)cc1C` [Example 98, 3-(4-cyano-5-fluoro-2-methylphenyl)-N-ethylimidazo[1,2-b]pyridazine-2-carboxamide], for which the pIC50 on Human PDE4C is 6.97; on Human PDE4A it was 7.58; at Human PDE4D it was 5.48.

Turning to `O=C(Nc1ncccn1)c1nc2cccnn2c1-c1ccc(Cl)cc1` [Example 101, 3-(4-chlorophenyl)-N-(pyrimidin-2-yl)imidazo[1,2-b]pyridazine-2-carboxamide], the pIC50 at Human PDE4C is 5.93; at Human PDE4A, 6.57; at Human PDE4D it was under 4.59.

Take `O=C(NCC1CC1)c1nc2cccnn2c1-c1ccc(Cl)cc1` [Example 102, 3-(4-chlorophenyl)-N-(cyclopropylmethyl)imidazo[1,2-b]pyridazine-2-carboxamide]: the values for the pIC50 at Human PDE4C, on Human PDE4A and on Human PDE4D were 7.12, 7.22 and 5.30, respectively.

As for `O=C(NC1CC1)c1nc2cccnn2c1-c1cc(F)c(Cl)c(F)c1` [Example 104, 3-(4-chloro-3,5-difluorophenyl)-N-cyclopropylimidazo[1,2-b]pyridazine-2-carboxamide], the pIC50 at Human PDE4C was 8.33; on Human PDE4A, over 9.31; on Human PDE4D, 6.84.
